According to patent US20090163481A1, “PPAR-DELTA LIGANDS AND METHODS OF THEIR USE” (priority 2007, published 2009):
Read-outs that look alike come from different tables or passages of the source.

How the values were obtained:
[1] = biological target: T1, ligand binding domain of PPAR delta (Homo sapiens, UniProt Q03181); assay: LANTHA SCREEN TR-FRET PPARδ Competitive Binding Assay
T1 construct: purchased Invitrogen
T1 sequence (Q03181 211-439 limits assumed): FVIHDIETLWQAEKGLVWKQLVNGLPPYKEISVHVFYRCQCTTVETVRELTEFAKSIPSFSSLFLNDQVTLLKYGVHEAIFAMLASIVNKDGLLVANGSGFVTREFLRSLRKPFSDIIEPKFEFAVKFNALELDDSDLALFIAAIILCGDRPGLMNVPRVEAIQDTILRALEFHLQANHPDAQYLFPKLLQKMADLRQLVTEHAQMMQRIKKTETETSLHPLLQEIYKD
Method: The LANTHA SCREEN™ TR-FRET PPARδ Competitive Binding Assay was conducted for a variety of compounds according to the instructions provided by the manufacturer (Invitrogen). In addition, proliferation assays were conducted. In Table 2, “Prolif IC50” is the concentration that inhibits cell viability (or growth) by 50% relative to a vehicle control, and “TR-F binding IC50 (μM)” is the concentration that competes binding by a labeled pan-agonist to the ligand binding domain of PPAR delta, by 50%.

A549 cells [2] = assay: Western blotting of cell-cycle regulatory proteins in A549 cells; type: cell-based, human; details: A549, 20 μM, 24 and 48 h, 0.5% FBS
Method: Referring now to FIG. 5C, SR13904 treatment of A549 human NSCLC cell line modulates cell cycle protein expression patterns toward an inhibitory phenotype. Given the flow cytometry results described above, the effect of SR13904 on the expression of some key cell-cycle regulatory proteins involved in G1 and S phases was investigated. A549 cells were grown in phenol-red-free DMEM+0.5% charcoal-treated FBS and exposed to the ligand. […]

A549 cells [3] = assay: Cell cycle distribution by flow cytometry in A549 cells; type: cell-based, human; details: A549, 2% FBS, 15 μM, after 24 h
Method: Referring now to FIG. 5A, SR13904 exerts inhibitory effects on the cell cycle. A representative experiment in which A549 cells were grown in phenol-red-free DMEM+2% charcoal-treated FBS □ SR13904 ([…]). Cells were treated in the exponential phase and assessed by flow cytometry at 24 and 48 h.
Referring now to FIG. 5B, SR13904 treatment arrests A549 cells in the G1 phase of the cell cycle. A549 cells were incubated in 2% FBS (to maintain a high proliferative state) and the cell-cycle profile was determined by flow cytometry after SR13904 treatment (15 μM) for 24 and 48 h, and compared with similar treatment by a control. […] All differences (SR13904-treated vs. vehicle control-treated) were significant; the G1 differences were highly significant (**p=0.001-0.01, ***p=<0.001). The results provide confirming evidence that activated PPARδ increases cell cycle progression through a positive effect on G1-phase cells, and that PPARδ activation upregulates CDK2, CDK4, and cyclin D1 expression patterns.

- IC50 ([1]; competes binding by a labeled pan-agonist by 50%, * = determined by approximation from a semi log graph, read-out: TR-F binding IC50): 2400 nM
- IC50 ([1]; repeat determination of TR-F binding IC50, read-out: repeat TR-F): 2100 nM
Structure (SMILES): Cc1cc(SCc2sc(-c3cccc4ccccc34)nc2C)ccc1OCC(=O)O [SR 13904]
- levels of cyclin E, p21, and p27 (A549 cells [2]): little or no effect
- steady state levels of CDK2, CDK4, cyclin D1, and cyclin A proteins (A549 cells [2]): decreased
- fraction of cells in the G1 phase (A549 cells [3]): significantly increased
- fraction of cells in the S phase (A549 cells [3]): decreased
